From patent US20150197492A1, “NOVEL INDENO[1,2-c]QUINOLIN-11-ONE DERIVATIVES, PREPARATION METHOD AND APPLICATION THEREOF” (National Defense Medical Center, priority 2014, published 2015)

Assays:
Assay type in all cases: cell-based
[1] = system: UACC-62; assay: cells; settings: UACC-62 (Melanoma), 10 μM, 48 hours
[2] = system: T-47D; assay: cells; settings: T-47D (Breast Cancer), 10 μM, 48 hours
[3] = system: PC-3; assay: cells; settings: PC-3 (Prostate Cancer), 10 μM, 48 hours
[4] = system: SR; assay: cells; settings: SR (Leukemia), 10 μM, 48 hours
[5] = system: LOX IMVI; assay: cells; settings: LOX IMVI (Melanoma), 10 μM, 48 hours
[6] = system: MCF7; assay: cells; settings: MCF7 (Breast Cancer), 10 μM, 48 hours
[7] = system: NCI-H226; assay: cells; settings: NCI-H226 (Non-Small Cell Lung Cancer), 10 μM, 48 hours
[8] = system: M14; assay: cells; settings: M14 (Melanoma), 10 μM, 48 hours
[9] = system: SN12C; assay: cells; settings: SN12C (Renal Cancer), 10 μM, 48 hours
[10] = system: human PC-3 cells; assay: Sulforhodamine B (SRB) assay, cytotoxicity against PC-3 cells; settings: SRB assay, PC-3 cells
Summary of the method: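 PC-3 cells in 5% FBS were fixed with 10% TCA after 24 h as T0, then treated with compound for 48 h, fixed, stained with 0.4% SRB in 1% acetic acid and solubilized in 10 mmol/L Trizma base. Absorbance was read at 515 nm. GI% = 100−[(Tx−T0)/(C−T0)]×100, and IC50 is the concentration halving total protein.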

[11] = system: OVCAR-8; assay: cells; settings: OVCAR-8 (Ovarian Cancer), 10 μM, 48 hours
[12] = system: NCI-H460; assay: cells; settings: NCI-H460 (Non-Small Cell Lung Cancer), 10 μM, 48 hours
[13] = system: COLO 205; assay: cells; settings: COLO 205 (Colon Cancer), 10 μM, 48 hours
[14] = system: K-562; assay: cells; settings: K-562 (Leukemia), 10 μM, 48 hours
[15] = system: DU-145; assay: cells; settings: DU-145 (Prostate Cancer), 10 μM, 48 hours
[16] = system: OVCAR-4; assay: cells; settings: OVCAR-4 (Ovarian Cancer), 10 μM, 48 hours
[17] = system: SK-OV-3; assay: cells; settings: SK-OV-3 (Ovarian Cancer), 10 μM, 48 hours
[18] = system: MDA-MB-468; assay: cells; settings: MDA-MB-468 (Breast Cancer), 10 μM, 48 hours
[19] = system: NCI-H322M; assay: cells; settings: NCI-H322M (Non-Small Cell Lung Cancer), 10 μM, 48 hours
[20] = system: SNB-75; assay: cells; settings: SNB-75 (CNS Cancer), 10 μM, 48 hours
[21] = system: ACHN; assay: cells; settings: ACHN (Renal Cancer), 10 μM, 48 hours
[22] = system: A498; assay: cells; settings: A498 (Renal Cancer), 10 μM, 48 hours
[23] = system: MDA-MB-231/ATCC; assay: cells; settings: MDA-MB-231/ATCC (Breast Cancer), 10 μM, 48 hours
[24] = system: U251; assay: cells; settings: U251 (CNS Cancer), 10 μM, 48 hours
[25] = system: SW-620; assay: cells; settings: SW-620 (Colon Cancer), 10 μM, 48 hours
[26] = system: SNB-19; assay: cells; settings: SNB-19 (CNS Cancer), 10 μM, 48 hours
[27] = system: SF-539; assay: cells; settings: SF-539 (CNS Cancer), 10 μM, 48 hours
[28] = system: MALME-3M; assay: cells; settings: MALME-3M (Melanoma), 10 μM, 48 hours
[29] = system: SF-295; assay: cells; settings: SF-295 (CNS Cancer), 10 μM, 48 hours
[30] = system: 55 to 60 cancer cell lines; settings: 10 μM, 48 hours, all tested cell lines

## O=C1c2cc(Cl)ccc2-c2c(N3CCOCC3)nc3ccccc3c21 [SJ-8, 9-Chloro-6-morpholino-11H-indeno[1,2-c]quinolin-11-one]
[1]
  growth percentage: 88.33%
[2]
  growth percentage: 88.81%
[3]
  growth percentage: 79.64%
[4]
  growth percentage: 85.94%
[5]
  growth percentage: 91.20%
[6]
  growth percentage: 52.31%
[7]
  growth percentage: 87.21%
[8]
  growth percentage: 106.99%
[9]
  growth percentage: 96.95%
[10]; Homo sapiens, 48 hours, read-out: IC50
  IC50: > 10 µM
[11]
  growth percentage: 95.25%
[12]
  growth percentage: 102.14%
[13]
  growth percentage: 100.71%
[14]
  growth percentage: 89.01%
[15]
  growth percentage: 119.02%
[16]
  growth percentage: 96.67%
[17]
  growth percentage: 107.26%
[18]
  growth percentage: 59.47%
[19]
  growth percentage: 91.28%
[20]
  growth percentage: 81.55%
[21]
  growth percentage: 81.66%
[22]
  growth percentage: 93.88%
[23]
  growth percentage: 79.28%
[24]
  growth percentage: 95.72%
[25]
  growth percentage: 103.71%
[26]
  growth percentage: 100.01%
[27]
  growth percentage: 96.24%
[28]
  growth percentage: 136.93%
[29]
  growth percentage: 102.43%
[30]
  Mean (mean growth percentage of the tested cancer cell lines): 93.66%

## O=C1c2cc(Cl)ccc2-c2c(N3CCSCC3)nc3ccccc3c21 [SJ-9, 9-Chloro-6-thiomorpholino-11H-indeno[1,2-c]quinolin-11-one]
[1]
  growth percentage: 94.90%
[2]
  growth percentage: 83.86%
[3]
  growth percentage: 87.77%
[4]
  growth percentage: 99.53%
[5]
  growth percentage: 100.04%
[6]
  growth percentage: 49.61%
[7]
  growth percentage: 94.22%
[8]
  growth percentage: 101.69%
[9]
  growth percentage: 93.10%
[10]
  Toxicity (%): 33.3%
[10]; 10 μM
  GI % (10 μM): 100%
[11]
  growth percentage: 96.11%
[12]
  growth percentage: 93.32%
[13]
  growth percentage: 96.30%
[14]
  growth percentage: 100.89%
[15]
  growth percentage: 106.04%
[16]
  growth percentage: 98.19%
[17]
  growth percentage: 84.60%
[18]
  growth percentage: 97.71%
[19]
  growth percentage: 92.29%
[20]
  growth percentage: 72.13%
[21]
  growth percentage: 86.42%
[22]
  growth percentage: 99.15%
[23]
  growth percentage: 93.08%
[24]
  growth percentage: 111.96%
[25]
  growth percentage: 91.88%
[26]
  growth percentage: 113.43%
[27]
  growth percentage: 92.93%
[28]
  growth percentage: 101.05%
[29]
  growth percentage: 93.33%
[30]
  Mean (mean growth percentage of the tested cancer cell lines): 94.75%
